Patent publication US11266640B2, “Polycyclic compound acting as IDO inhibitor and/or IDO-HDAC dual inhibitor” (Hangzhou Innogate Pharma Co., Ltd., priority 2017, dated 2022)

Legend:
[1] = target: T1, hIDO1 (Homo sapiens, UniProt P14902); experiment: IDO inhibition activity based on HEK293T cells transfected with hIDO1 plasmid; format: cell-based; conditions: HEK293T cells transfected with hIDO1, 16 hours incubation, OD 480 nm; read-out: IDO inhibitory activity of HEK293T cells (IC50)
T1 construct: expressed in transfected cells; host or cells: HEK293T (293T) cells, transient transfection with Fugene 6
T1 sequence (P14902 whole entry): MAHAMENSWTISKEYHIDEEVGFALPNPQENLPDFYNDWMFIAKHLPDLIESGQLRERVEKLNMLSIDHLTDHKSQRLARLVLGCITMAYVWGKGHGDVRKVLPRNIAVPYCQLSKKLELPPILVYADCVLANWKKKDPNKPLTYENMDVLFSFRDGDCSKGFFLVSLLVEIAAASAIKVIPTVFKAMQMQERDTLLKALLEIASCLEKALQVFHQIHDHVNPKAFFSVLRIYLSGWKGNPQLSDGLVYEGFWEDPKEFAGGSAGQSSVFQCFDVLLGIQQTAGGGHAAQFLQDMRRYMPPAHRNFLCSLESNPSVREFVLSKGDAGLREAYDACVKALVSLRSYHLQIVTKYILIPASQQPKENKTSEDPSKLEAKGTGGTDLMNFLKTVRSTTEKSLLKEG
Procedure: 1. Test Method for IDO Inhibition Activity Based on HEK293T Cells:
The first step: cell transfection and plating. 5×10^6 293T cells were separately seeded in two T75 flasks and incubated overnight at 37° C. in a 5% CO2 incubator. […] of a mixture containing 1.5 μg of hIDO1 plasmid and 300 μL of opti-MEM was made into a mixture A; 18 μL of liposome fugene 6 was mixed with 300 μL of opti-MEM to prepare a mixture B, and allowed to stand at room temperature for 5 minutes. Mixture A and Mix B were mixed, placed at room temperature for 20 minutes, added to a 293T culture flask, and the other flask was used as a control and incubated overnight at 37° C. in a 5% CO2 incubator. The medium was discarded, digested with trypsin, and after digestion, the cells were neutralized with serum-containing medium, and the cells were blown to cause the cells to fall off. Pipette the cell suspension into a centrifuge tube and centrifuge at a speed of 800-1000 for 1-3 minutes. Aspirate the cell supernatant from the centrifuge tube. Add an appropriate volume of medium to the tube and gently blister to resuspend the cells. Count using a Vi-Cell XR cytometer. Adjust the cell suspension to the appropriate concentration. The cell suspension was added to a white-well 96-well plate at 80 μL/well. The second step: preparation and addition of the compound. Compounds were formulated in DMSO at 600 μM and the compounds were diluted in DMSO according to a multiple of the following table to give 6 concentration gradients of the compound. The 200× compound prepared in DMSO was formulated into a 10× dilution solution in proportion to the corresponding cell culture medium. Add 10 μL of 10× corresponding compound dilution and 10 μL of 10×TRP to each well, except for Min. Incubate for 16 hours in a 37° C. incubator. The third step: detection and analysis. Cell morphology was observed under an inverted microscope. 80 μL of the supernatant was added to a 3894 plate, and 10 μL of 6.1 N trichloroacetic acid was added to each well, shaken for 2 minutes, and placed in a 50-degree incubator for 30 minutes. Centrifuged at 2500 rpm for 10 minutes. Take 70 μL of the supernatant and transfer to a 3635 UV plate, add 70 μL of the reaction solution, and shake for 2 minutes to make the reaction uniform. Use EnSpire (PE) to detect data with an OD of 480 nm. The cell culture plate 3903 was allowed to stand at room temperature for 30 minutes. 100 μL/well of the cell activity detecting reagent was added to the culture plate. Mix on a shaker for 2 minutes to induce cell lysis. The 96-well plate was allowed to stand at room temperature for 10 minutes to stabilize the luminescence signal. Paste the white base film on the bottom of the plate and the plate was tested in Flexstation 3 (the relevant setting is: Illumination, integration time 500 ms). Record the experimental results obtained from the analysis.
The IC50 value is expressed by: A: IC50 value≤10 nM; B: 10 nM<IC50 value≤50 nM; C: 50 nM<IC50 value≤100 nM; D: IC50 value>100 nM.

[2] = target: T2, IDO (Homo sapiens, UniProt P14902); experiment: Hela cell-based IDO inhibitory activity test (IFNγ added); conditions: Hela cells with IFNγ, 48 hours incubation, OD 480 nm
T2 construct: endogenous in cells; host or cells: HeLa cells treated with IFNγ
T2 sequence (P14902 whole entry): as above
Procedure: 2. Hela Cell-Based IDO Inhibitory Activity Test Method
The first step: cell plating. Prepare complete medium and mix well. Cell lines that are in good growth state are selected. Remove the cell culture flask from the incubator and check the cell name, media type and cell generation number on the bottle. The medium was discarded, digested with trypsin, and after digestion, the cells were neutralized with serum-containing medium, and the cells were blown to cause the cells to fall off. Pipette the cell suspension into a centrifuge tube and centrifuge at a speed of 800-1000 for 3-5 minutes. Aspirate the cell supernatant from the centrifuge tube. Add an appropriate volume of medium to the tube and gently blister to resuspend the cells. Count using a Vi-Cell XR cytometer. Adjust the cell suspension to the appropriate concentration. The cell suspension was added to a white-well 96-well plate at 80 μl/well according to the schematic below. The second step: preparation and addition of the compound. Compounds were formulated in DMSO at 600 μM and the compounds were diluted in DMSO according to a multiple of the following table to give 6 concentration gradients of the compound. The 200× compound prepared in DMSO was formulated into a 10× dilution solution in proportion to the corresponding cell culture medium. After 24 hours of cell seeding, 10 μL of 10× corresponding compound dilution and 10 μL of 10×IFNγ were added to each well. Incubate for 48 hours in a 37° C. incubator. The third step: detection and analysis. Cell morphology was observed under an inverted microscope. 80 μL of the supernatant was added to a 3894 plate, 10 μL of 6.1 N trichloroacetic acid was added to each well, shaken for 2 minutes, and placed in a 50-degree incubator for 30 minutes. Centrifuge, 2500 rpm for 10 minutes.
Take 70 μL of the supernatant and transfer to a 3635 UV plate, add 70 μL of the reaction solution, and shake for 2 minutes to make the reaction uniform. Use EnSpire (PE) to detect data with an OD of 480 nm. The cell culture plate 3903 was allowed to stand at room temperature for 30 minutes. 100 μL/well of the cell activity detecting reagent was added to the culture plate. Mix on a shaker for 2 minutes to induce cell lysis. The 96-well plate was allowed to stand at room temperature for 10 minutes to stabilize the luminescence signal. Paste the white base film on the bottom of the plate and tested with Flexstation3 plate (the relevant setting is: Illumination, integration time 500 ms). Record the experimental results obtained from the analysis.
The IC50 value is expressed in the following manner: […]

IC50 [1] [nM]	IC50 [2] [nM]	Compound
≤ 10	≤ 5	C#Cc1ccc(NC(=O)C(C)(C)[C@H]2C[C@H]3C[C@@H](c4ccnc5ccc(F)cc45)C[C@H]3C2)cn1 [Compound 87]
≤ 10	≤ 5	C#Cc1ccc(NC(=O)C2([C@H]3C[C@H]4C[C@@H](c5ccnc6ccc(F)cc56)C[C@H]4C3)CC2)nc1 [Compound 96]
≤ 10	≤ 5	C[C@@H](C(=O)Nc1ccc(Cl)cc1)[C@H]1C[C@H]2C[C@@H](c3ccnc4ccc(F)cc34)C[C@H]2C1 (single isomer, unassigned) [Compound 1A]
≤ 10	≤ 5	C#Cc1ccc(NC(=O)C(C)[C@H]2C[C@H]3C[C@@H](c4ccnc5ccc(F)cc45)C[C@H]3C2)cc1 (stereo partly shown) [Compound 34]
10 to 50	≤ 5	CC(C(=O)Nc1ccc(Cl)cc1)[C@@H]1C[C@]2(C)C[C@H](c3ccnc4ccc(F)cc34)C[C@]2(C)C1 (stereo partly shown) [Compound 40]
≤ 10	≤ 5	CC(C(=O)Nc1ccc(Cl)cc1)C1=C[C@H]2C[C@@H](c3ccnc4ccc(F)cc34)C[C@H]2C1 (stereo partly shown) [Compound 38]
10 to 50	≤ 5	CC(C(=O)Nc1ccc(Cl)cn1)[C@H]1C[C@H]2CC(c3ccnc4ccc(F)cc34)C[C@H]2C1 (mixture of isomers) [Compound 26]
≤ 10	≤ 5	CC(C)(C(=O)Nc1ccc(C#N)cn1)[C@H]1C[C@H]2C[C@@H](c3ccnc4ccc(F)cc34)C[C@H]2C1 [Compound 88]
≤ 10	≤ 5	O=C(Nc1ccc(Cl)cn1)C1([C@@H]2C[C@H]3C[C@@H](c4ccnc5ccc(F)cc45)C[C@H]3C2)CC1 [Compound 92]

Further lines, the molecule ahead of its results:

Compound	IC50 [1] [nM]	IC50 [2] [nM]
CC(C(=O)Nc1cccc(Cl)c1)[C@H]1C[C@H]2C[C@@H](c3ccnc4ccc(F)cc34)C[C@H]2C1 (stereo partly shown) [Compound 7]	10 to 50	5 to 25
CC(C(=O)Nc1ccc(Cl)nc1)[C@H]1C[C@H]2C[C@@H](c3ccnc4ccc(F)cc34)C[C@H]2C1 (stereo partly shown) [Compound 27]	10 to 50	≤ 5
O=C(C[C@@H]1C[C@@H]2C[C@@H](Oc3ccnc4ccccc34)C[C@@H]2C1)Nc1ccc(Cl)cc1 [Compound 51]	> 100	> 100
CC(C(=O)Nc1ccc(Cl)nc1)N1C[C@H]2C[C@@H](c3ccnc4ccc(F)cc34)C[C@H]2C1 (stereo partly shown) [Compound 45]	10 to 50	5 to 25
COc1ccc(NC(=O)C(C)[C@H]2C[C@H]3C[C@@H](c4ccnc5ccc(F)cc45)C[C@H]3C2)cn1 (stereo partly shown) [Compound 6]	10 to 50	5 to 25
C#Cc1ccc(NC(=O)C[C@@H]2C[C@@H]3C[C@H](c4ccnc5ccc(F)cc45)C[C@@H]3C2)nc1 [Compound 67]	≤ 10	≤ 5
O=C(C[C@@H]1C[C@@H]2CC(c3ccnc4ccc(F)cc34)=C[C@@H]2C1)Nc1ccc(Cl)cc1 [Compound 11]	10 to 50	≤ 5
CC(C(=O)Nc1ccc(C#N)nc1)[C@H]1C[C@H]2C[C@@H](c3ccnc4ccc(F)cc34)C[C@H]2C1 (stereo partly shown) [Compound 72]	≤ 10	≤ 5
O=C(C[C@@H]1C[C@H]2CC(c3ccnc4ccc(F)cc34)C[C@H]2C1)Nc1ccc(Cl)nc1 (stereo partly shown) [Compound 22]	10 to 50	5 to 25
O=C(Cc1ccc(CC(C(=O)Nc2ccc(Cl)cc2)[C@H]2CC[C@@H](c3ccnc4ccc(F)cc43)CC2)cc1)NO (stereo partly shown) [Compound 10]	> 100	> 100
O=C(Nc1ccc(Cl)cn1)C1([C@H]2C[C@H]3C[C@@H](c4ccnc5ccc(F)cc45)C[C@H]3C2)CC1 [Compound 95]	≤ 10	≤ 5
